From patent US11174251B2, “Compositions and methods for inhibition of the JAK pathway” (Rigel Pharmaceuticals, Inc., priority 2010, dated 2021)
Counter-ions that a name gives are not always drawn.

Molecular target: T1, JAK3 (Homo sapiens, UniProt P52333)
T1 construct: The Ramos B-cell line was acquired from ATCC (ATCC Catalog No. CRL-1596); host or cells: Ramos B-cell line (human)
T1 sequence (P52333 1-1124): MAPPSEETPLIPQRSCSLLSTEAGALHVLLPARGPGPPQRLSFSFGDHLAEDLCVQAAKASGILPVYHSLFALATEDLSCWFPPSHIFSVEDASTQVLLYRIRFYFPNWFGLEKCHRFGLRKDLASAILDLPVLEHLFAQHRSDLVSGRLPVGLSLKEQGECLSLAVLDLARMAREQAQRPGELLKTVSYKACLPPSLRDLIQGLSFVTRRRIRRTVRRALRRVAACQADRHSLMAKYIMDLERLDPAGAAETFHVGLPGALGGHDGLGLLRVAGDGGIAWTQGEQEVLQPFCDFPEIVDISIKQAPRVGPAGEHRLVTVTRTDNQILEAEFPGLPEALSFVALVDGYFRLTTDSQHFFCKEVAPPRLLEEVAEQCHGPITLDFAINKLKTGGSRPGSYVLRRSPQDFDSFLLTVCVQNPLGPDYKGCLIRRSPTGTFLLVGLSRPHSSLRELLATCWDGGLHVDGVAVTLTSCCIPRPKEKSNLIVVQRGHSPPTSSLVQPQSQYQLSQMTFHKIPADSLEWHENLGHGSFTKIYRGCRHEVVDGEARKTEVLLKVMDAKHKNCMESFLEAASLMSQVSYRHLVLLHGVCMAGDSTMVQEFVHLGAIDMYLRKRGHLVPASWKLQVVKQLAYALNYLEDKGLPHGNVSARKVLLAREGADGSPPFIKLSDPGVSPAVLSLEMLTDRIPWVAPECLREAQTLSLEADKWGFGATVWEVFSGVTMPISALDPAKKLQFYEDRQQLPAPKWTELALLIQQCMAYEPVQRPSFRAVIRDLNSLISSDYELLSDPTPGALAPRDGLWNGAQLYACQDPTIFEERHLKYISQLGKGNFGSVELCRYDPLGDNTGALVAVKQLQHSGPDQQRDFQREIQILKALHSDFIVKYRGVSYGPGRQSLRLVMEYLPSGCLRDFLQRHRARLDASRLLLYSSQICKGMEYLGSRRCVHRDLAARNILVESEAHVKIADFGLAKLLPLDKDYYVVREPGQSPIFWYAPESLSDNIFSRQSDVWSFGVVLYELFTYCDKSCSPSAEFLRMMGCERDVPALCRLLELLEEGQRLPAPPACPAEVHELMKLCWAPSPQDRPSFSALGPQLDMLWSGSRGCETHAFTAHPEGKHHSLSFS
Assay: Assay for CD23 expression on Ramos B-cells stimulated by IL-4 (Table IV: ability to inhibit JAK3 activity)
Format: cell-based
Conditions: tested under conditions described in Example 3 (so in the source)
Summary of the method: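 IL-4-induced CD23 surface expression on human Ramos B cells, detected by flow cytometry after 20–24 h stimulation (IL-4 final 50 units/mL). Compound or DMSO added 1 h beforehand at 37 °C; cells kept in RPMI with 5% serum.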

| SMILES | IC50 |
| --- | --- |
| COc1cc(Nc2ncc(F)c(Nc3ccc4oc(=O)[nH]c4c3)n2)cc(C)c1F [Compound I-181, 5-(2-(4-fluoro-3-methoxy-5-methylphenylamino)-5-fluoropyrimidin-4-ylamino)benzo[d]oxazol-2(3H)-one trifluoroacetate salt] | < 500 nM |
| COc1ccc(Nc2ncc(F)c(Nc3ccc4oc(=O)[nH]c4c3)n2)cc1 [Compound I-196, 5-(2-(4-methoxyphenylamino)-5-fluoropyrimidin-4-ylamino)benzo[d]oxazol-2(3H)-one formate salt] | < 500 nM |
| COc1cc(Nc2ncc(CO)c(Nc3ccc4oc(=O)[nH]c4c3)n2)cc(C)c1F [Compound I-80, 5-(2-(4-fluoro-3-methoxy-5-methylphenylamino)-5-(hydroxymethyl)pyrimidin-4-ylamino)benzo[d]oxazol-2(3H)-one trifluoroacetate salt] | 500 to 5000 nM |
| Cc1cc(Nc2ncc([N+](=O)[O-])c(Nc3ccc4oc(=O)[nH]c4c3)n2)cc(C)c1C [Compound I-42, 5-(5-nitro-2-(3,4,5-trimethylphenylamino)pyrimidin-4-ylamino)benzo[d]oxazol-2(3H)-one trifluoroacetate salt] | > 10000 nM |
| O=c1[nH]c2cc(Nc3nc(Nc4ccccc4)ncc3[N+](=O)[O-])ccc2o1 [Compound I-41, 5-(5-nitro-2-(phenylamino)pyrimidin-4-ylamino)benzo[d]oxazol-2(3H)-one trifluoroacetate salt] | 5000 to 10000 nM |
| O=c1[nH]c2cc(Nc3nc(Nc4cc(F)cc(N5CCOCC5)c4)ncc3F)ccc2o1 [Compound I-169, 5-(2-(3-fluoro-5-morpholinophenylamino)-5-fluoropyrimidin-4-ylamino)benzo[d]oxazol-2(3H)-one ditrifluoroacetate salt] | < 500 nM |
| CCN(c1cc(C)c(C)c(C)c1)c1ncc(C)c(Nc2ccc3oc(=O)[nH]c3c2)n1 [Compound I-139, N2-ethyl-N2-(3,4,5-trimethyl)phenyl-5-methyl-N4-(2-oxo-2,3-dihydro-1,3-benzoxazol-5-yl)-2,4-pyrimidinediamine] | > 10000 nM |
| Cc1cc(C)nc(Nc2ncc(C)c(Nc3ccc4oc(=O)[nH]c4c3)n2)c1 [II-15, N2-(4,6-dimethylpyridin-2-yl)-5-methyl-N4-(2-oxo-2,3-dihydro-1,3-benzoxazol-5-yl)-2,4-pyrimidinediamine] | 500 to 5000 nM |
| Cc1cc(Nc2ncc(Br)c(Nc3ccc4oc(=O)[nH]c4c3)n2)cc(C)c1C [Compound I-16, 5-(5-bromo-2-(3,4,5-trimethylphenylamino)pyrimidin-4-ylamino)benzo[d]oxazol-2(3H)-one formate salt] | < 500 nM |
| Cc1cnc(Nc2cc(C)c(C)c(C)c2)nc1Nc1ccc2oc(=O)[nH]c2c1 [Compound I-131, 5-methyl-N4-(2-oxo-2,3-dihydro-1,3-benzoxazol-5-yl)-N2-(3,4,5-trimethyl)phenyl-2,4-pyrimidinediamine benzenesulfonic acid salt] | < 500 nM |
| Cc1cnc(Nc2cc(C)c(C)c(C(=O)O)c2)nc1Nc1ccc2oc(=O)[nH]c2c1 [Compound I-145, N2-(3-carboxy-4,5-dimethyl)phenyl-5-methyl-N4-(2-oxo-2,3-dihydro-1,3-benzoxazol-5-yl)-2,4-pyrimidinediamine] | 500 to 5000 nM |
| NC(=O)c1ccc(Nc2ncc([N+](=O)[O-])c(Nc3ccc4oc(=O)[nH]c4c3)n2)cc1 [Compound I-60, 4-(5-nitro-4-(2-oxo-2,3-dihydrobenzo[d]oxazol-5-ylamino)pyrimidin-2-ylamino)benzamide trifluoroacetate salt] | > 10000 nM |
| COC(=O)c1cnc(Nc2cc(C)c(C)c(OC)c2)nc1Nc1ccc2oc(=O)[nH]c2c1 [Compound I-59, 2-(3-Methoxy-4,5-dimethyl-phenylamino)-4-(2-oxo-2,3-dihydro-benzooxazol-5-ylamino)-pyrimidine-5-carboxylic acid methyl ester trifluoroacetate salt] | > 10000 nM |
| COc1ccc(Nc2ncc(F)c(Nc3ccc4oc(=O)[nH]c4c3)n2)cc1C(F)(F)F [Compound I-212, 5-fluoro-N2-(4-methoxy-3-trifluoromethyl)phenyl-N4-(2-oxo-2,3-dihydro-1,3-benzoxazol-5-yl)-2,4-pyrimidinediamine] | < 500 nM |
| COc1cc(Nc2ncc(Cl)c(Nc3ccc4oc(=O)[nH]c4c3)n2)ccc1C [Compound I-32, 5-(5-chloro-2-(3-methoxy-4-methylphenylamino)pyrimidin-4-ylamino)benzo[d]oxazol-2(3H)-one trifluoroacetate salt] | < 500 nM |
| COc1cc(Nc2ncc(F)c(Nc3ccc4oc(=O)[nH]c4c3)n2)cc(C)c1OC [Compound I-182, 5-(2-(3,4-dimethoxy-5-methylphenylamino)-5-fluoropyrimidin-4-ylamino)benzo[d]oxazol-2(3H)-one trifluoroacetate salt] | < 500 nM |
| Cc1cnc(Nc2cc(C)c(C(=O)OCc3ccccc3)c(C)c2)nc1Nc1ccc2oc(=O)[nH]c2c1 [Compound I-141, N2-(4-benzyloxycarbonyl-3,5-dimethyl)phenyl-5-methyl-N4-(2-oxo-2,3-dihydro-1,3-benzoxazol-5-yl)-2,4-pyrimidinediamine] | < 500 nM |
| CCOc1cc(Nc2ncc(Cl)c(Nc3ccc4oc(=O)[nH]c4c3)n2)cc(C)c1C [Compound I-104, 5-(5-chloro-2-(3-ethoxy-4,5-dimethylphenylamino)pyrimidin-4-ylamino)benzo[d]oxazol-2(3H)-one ditrifluoroacetate salt] | < 500 nM |
| COC(=O)c1cnc(Nc2cc(C)c(F)c(C)c2)nc1Nc1ccc2oc(=O)[nH]c2c1 [Compound I-74, methyl 2-(4-fluoro-3,5-dimethylphenylamino)-4-(2-oxo-2,3-dihydrobenzo[d]oxazol-5-ylamino)pyrimidine-5-carboxylate trifluoroacetate salt] | 5000 to 10000 nM |
| COc1cc(C)cc(Nc2ncc(F)c(Nc3cc(C)c4oc(=O)[nH]c4c3)n2)c1 [Compound I-177, 5-(2-(3-methoxy-5-methylphenylamino)-5-fluoropyrimidin-4-ylamino)-7-methylbenzo[d]oxazol-2(3H)-one trifluoroacetate salt] | > 10000 nM |
| Cc1cc(C)cc(Nc2ncc(F)c(Nc3cc(F)c4oc(=O)[nH]c4c3)n2)c1 [Compound I-187, 5-(2-(3,5-dimethylphenylamino)-5-fluoropyrimidin-4-ylamino)-7-fluorobenzo[d]oxazol-2(3H)-one trifluoroacetate salt] | < 500 nM |
| [2H]C([2H])([2H])c1c(C)cc(Nc2ncc(Cl)c(Nc3ccc4oc(=O)[nH]c4c3)n2)cc1C [Compound I-36, 5-(5-chloro-2-(3,5-dimethyl-4-d3-methyl)phenylamino)pyrimidin-4-ylamino)benzo[d]oxazol-2(3H)-one trifluoroacetate salt] | < 500 nM |
| COCc1c(C)cc(Nc2ncc(C)c(Nc3ccc4oc(=O)[nH]c4c3)n2)cc1C [Compound I-143, N2-(3,5-dimethyl-4-methoxymethyl)phenyl-5-methyl-N4-(2-oxo-2,3-dihydro-1,3-benzoxazol-5-yl)-2,4-pyrimidinediamine] | < 500 nM |
| O=c1[nH]c2cc(Nc3nc(Nc4cc(F)cc(F)c4)ncc3Cl)ccc2o1 [Compound I-14, 5-(5-chloro-2-(3,5-difluorophenylamino)pyrimidin-4-ylamino)benzo[d]oxazol-2(3H)-one trifluoroacetate salt] | < 500 nM |
| [2H]C([2H])([2H])c1c(C)cc(Nc2nccc(Nc3ccc4oc(=O)[nH]c4c3)n2)cc1C [Compound I-38, 5-(2-(3,5-dimethyl-4-d3-methyl)phenylamino)pyrimidin-4-ylamino)benzo[d]oxazol-2(3H)-one trifluoroacetate salt] | < 500 nM |
| CN1CCN(c2cc(F)cc(Nc3ncc(F)c(Nc4ccc5oc(=O)[nH]c5c4)n3)c2)CC1 [Compound I-170, 5-(2-(3-fluoro-5-(4-methylpiperazin-1-yl)phenylamino)-5-fluoropyrimidin-4-ylamino)benzo[d]oxazol-2(3H)-one ditrifluoroacetate salt] | < 500 nM |
| COc1cccc(Nc2ncc(F)c(Nc3ccc4oc(=O)[nH]c4c3)n2)c1F [Compound I-20, 5-(5-fluoro-2-(2-fluoro-3-methoxyphenylamino)pyrimidin-4-ylamino)benzo[d]oxazol-2(3H)-one trifluoroacetate salt] | 500 to 5000 nM |
